The target in one assay is T1, M1 muscarinic receptor (Homo sapiens, UniProt P11229).
T1 construct: expressed in transfected cells; host or cells: CHO (M1-CHO)
T1 sequence (P11229 1-460): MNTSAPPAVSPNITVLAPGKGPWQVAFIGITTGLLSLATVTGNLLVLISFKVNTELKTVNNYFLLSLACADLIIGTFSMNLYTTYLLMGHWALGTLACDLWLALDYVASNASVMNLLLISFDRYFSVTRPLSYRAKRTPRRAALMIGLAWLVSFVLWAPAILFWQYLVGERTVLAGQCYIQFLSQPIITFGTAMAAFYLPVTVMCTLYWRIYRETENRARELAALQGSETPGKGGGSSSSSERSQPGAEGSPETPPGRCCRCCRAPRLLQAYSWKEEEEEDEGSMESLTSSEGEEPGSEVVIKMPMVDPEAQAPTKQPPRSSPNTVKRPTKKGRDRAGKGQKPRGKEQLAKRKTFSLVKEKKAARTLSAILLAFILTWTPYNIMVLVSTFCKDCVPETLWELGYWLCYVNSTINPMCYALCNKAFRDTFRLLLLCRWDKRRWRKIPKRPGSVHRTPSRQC
The experiment in a line: Functional mobilization of intracellular calcium (FLIPR) in M1-CHO cells. Format: cell-based. Particulars: Table 4; for Emax: 100% efficacy is the maximum response obtained with the Carbachol control; for M1 Activity: modulating M1 receptor. The essentials: (§1)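 Steps: seed M1- or M4-CHO cells 18-24 hrs ahead; load calcium dye with 1 mM probenecid; add test compound (0.5% DMSO final), either alone for agonism or 15 min before EC80 carbachol for inhibition; record FLIPR fluorescence for 60 sec.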

The next assay concerns the target T2, M4 muscarinic receptor (Homo sapiens, UniProt P08173).
T2 construct: expressed in transfected cells; host or cells: CHO (M4-CHO)
T2 sequence (P08173 1-479): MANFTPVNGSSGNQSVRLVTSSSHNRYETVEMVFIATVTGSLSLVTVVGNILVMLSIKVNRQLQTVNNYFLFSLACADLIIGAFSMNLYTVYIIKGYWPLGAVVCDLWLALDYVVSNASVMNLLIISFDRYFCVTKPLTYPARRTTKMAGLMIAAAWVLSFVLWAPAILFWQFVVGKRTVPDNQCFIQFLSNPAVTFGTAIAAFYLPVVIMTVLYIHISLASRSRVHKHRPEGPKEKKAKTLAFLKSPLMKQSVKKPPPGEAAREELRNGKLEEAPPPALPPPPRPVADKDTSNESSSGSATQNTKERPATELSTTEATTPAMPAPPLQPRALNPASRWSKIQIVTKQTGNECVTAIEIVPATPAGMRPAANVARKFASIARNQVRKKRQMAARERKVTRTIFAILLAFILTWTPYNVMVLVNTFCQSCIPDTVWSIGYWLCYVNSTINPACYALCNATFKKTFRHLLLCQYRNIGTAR
The experiment in a line: Functional mobilization of intracellular calcium (FLIPR) in M4-CHO cells. The format is cell-based. Conditions: Table 4; for Emax: 100% efficacy is the maximum response obtained with the Carbachol control; for M4 Activity: modulating M4 receptor. The essentials:
as §1
(In general: Calcium flux is commonly read through the fluorescence of an indicator in the cells.)

From patent publication US7786141B2 (Vertex Pharmaceuticals Incorporated, priority 2004, dated 2010) come the findings set out here.

A value given as a limit tells only on which side of the number the result lay.

By Emax is commonly meant the greatest response seen or fitted, relative to the assay's reference. In the case of `CCOC(=O)N1CCC(N2CCC3(CC2)CN(C(=O)CCOC)c2ccc(F)cc23)CC1` [compound 714], on M1 muscarinic receptor, the maximal effect (Emax) was > 100% and the “M1 Activity” value was “xxx (activity was measured to be less than 2.0 μM)”. On M4 muscarinic receptor, the Emax lay in the range of 25 to 100% and the “M4 Activity” value is reported as “xxx (activity was measured to be less than 2.0 μM)”.
For the compound `O=C1CC2(CCN(C3CCCCC3)CC2)c2cc(Cl)ccc21` [compound 715], at M1 muscarinic receptor, the Emax is 25 to 100% and the “M1 Activity” value is “xxx (activity was measured to be less than 2.0 μM)”. Moreover, on M4 muscarinic receptor, the maximal effect (Emax) lay in the range of 25 to 100% and the “M4 Activity” value is “xxx (activity was measured to be less than 2.0 μM)”.
Regarding `CC(=O)NC1CCC2(CCN(C3CCCCC3)CC2)c2ccccc21` (stereo not drawn) [compound 716], on M1 muscarinic receptor, the maximum response (Emax) fell in the range of 25 to 100% and the “M1 Activity” value is on record as “xxx (activity was measured to be less than 2.0 μM)”. At M4 muscarinic receptor, the maximal response (Emax) fell in the range of 25 to 100% and the “M4 Activity” value was “xxx (activity was measured to be less than 2.0 μM)”.
As to `CCOC(=O)N1CCC(N2CCC3(CC2)CN(c2ccccc2OC)c2ccc(F)cc23)CC1` [compound 717], at M1 muscarinic receptor, the Emax lay in the range of 25 to 100% and the “M1 Activity” value is given as “xxx (activity was measured to be less than 2.0 μM)”. On M4 muscarinic receptor, the Emax was 25 to 100% and the “M4 Activity” value is given as “xxx (activity was measured to be less than 2.0 μM)”.
`CN(C)C(=O)N1CC2(CCN(C3CCN(C(=O)c4ccccn4)CC3)CC2)c2cc(F)ccc21` [compound 718]: on M1 muscarinic receptor, the maximum response (Emax) was < 25% and the “M1 Activity” value is listed as “x (activity was measured to be greater than 5.0 μM)”. In addition, at M4 muscarinic receptor, the Emax was < 25% and the “M4 Activity” value was “x (activity was measured to be greater than 5.0 μM)”.
With `CCOC(=O)N1CCC(N2CCC3(CC2)CN(C(C)=O)c2ccc(S(C)(=O)=O)cc23)CC1` [compound 719], on M1 muscarinic receptor, the maximal response (Emax) lay within 25 to 100% and the “M1 Activity” value is “xxx (activity was measured to be less than 2.0 μM)”. Besides, at M4 muscarinic receptor, the Emax was < 25% and the “M4 Activity” value is “x (activity was measured to be greater than 5.0 μM)”.
On to `CN(C)C(=O)N1CC2(CCN(C3CCN(c4ccccn4)CC3)CC2)c2cc(F)ccc21` [compound 720], for which, at M1 muscarinic receptor, the maximum response (Emax) was in the range of 25 to 100%; the “M1 Activity” value is “xx (activity was measured to be between 2.0 μM and 5.0 μM)”. Also, on M4 muscarinic receptor, the Emax was in the range of 25 to 100% and the “M4 Activity” value was “xxx (activity was measured to be less than 2.0 μM)”.
For the compound `CCCCNC(=O)N1CC2(CCN(C3CCN(C(=O)OCC)CC3)CC2)c2ccccc21` [compound 721], at M1 muscarinic receptor, the maximal response (Emax) is 25 to 100% and the “M1 Activity” value is recorded as “xxx (activity was measured to be less than 2.0 μM)”. Besides, at M4 muscarinic receptor, the Emax was 25 to 100% and the “M4 Activity” value was “xxx (activity was measured to be less than 2.0 μM)”.
In the case of `CCOC(=O)N1CCC(CN2CCC3(CC2)CN(C(C)=O)c2c(F)cc(F)cc23)CC1` [compound 722], on M1 muscarinic receptor, the Emax is 25 to 100% and the “M1 Activity” value is given as “xxx (activity was measured to be less than 2.0 μM)”. For the same compound, at M4 muscarinic receptor, the Emax was in the range of 25 to 100% and the “M4 Activity” value is on record as “xxx (activity was measured to be less than 2.0 μM)”.
As for `CS(=O)(=O)N[C@H]1CCC2(CCN(C3CCCCCC3)CC2)c2ccccc21` [compound 723], on M1 muscarinic receptor, the maximum response (Emax) was 25 to 100% and the “M1 Activity” value was “xxx (activity was measured to be less than 2.0 μM)”. Besides, at M4 muscarinic receptor, the Emax lay in the range of 25 to 100% and the “M4 Activity” value was “xxx (activity was measured to be less than 2.0 μM)”.
Consider `CC(=O)N1CC2(CCN(C3CCN(C(=O)OCC4CC4)CC3)CC2)c2ccccc21` [compound 724], for which, at M1 muscarinic receptor, the Emax is 25 to 100%; the “M1 Activity” value was “xx (activity was measured to be between 2.0 μM and 5.0 μM)”. At M4 muscarinic receptor, the Emax is < 25% and the “M4 Activity” value is “x (activity was measured to be greater than 5.0 μM)”.
`O=C(N[C@H]1CC2(CCN(CCC3CC4CC[C@@H]3C4)CC2)c2ccccc21)N1CCCC1` (stereo partly drawn) [compound 726]: on M1 muscarinic receptor, the Emax was < 25% and the “M1 Activity” value was “x (activity was measured to be greater than 5.0 μM)”. For the same compound, on M4 muscarinic receptor, the maximal effect (Emax) was < 25% and the “M4 Activity” value is on record as “x (activity was measured to be greater than 5.0 μM)”.
In the case of `CN(C)C(=O)N1CC2(CCN(C3CCN(C(=O)C4(C(F)(F)F)CC4)CC3)CC2)c2cc(F)ccc21` [compound 727], on M1 muscarinic receptor, the Emax is 25 to 100% and the “M1 Activity” value was “x (activity was measured to be greater than 5.0 μM)”. Further, on M4 muscarinic receptor, the Emax is 25 to 100% and the “M4 Activity” value was “xxx (activity was measured to be less than 2.0 μM)”.
As for `CCOC(=O)N1CCC(N2CCC3(CC2)CN(C(C)=O)c2c(-c4cccnc4)cccc23)CC1` [compound 728], at M1 muscarinic receptor, the Emax was in the range of 25 to 100%; the “M1 Activity” value is “xx (activity was measured to be between 2.0 μM and 5.0 μM)”. In addition, on M4 muscarinic receptor, the maximal effect (Emax) is < 25% and the “M4 Activity” value is on record as “x (activity was measured to be greater than 5.0 μM)”.
As for `CN(C)C(=O)N1CC2(CCN(C3CCN(C(=O)CC#N)CC3)CC2)c2cc(F)ccc21` [compound 729], on M1 muscarinic receptor, the maximum response (Emax) was < 25% and the “M1 Activity” value is recorded as “x (activity was measured to be greater than 5.0 μM)”. At M4 muscarinic receptor, the Emax was < 25% and the “M4 Activity” value is given as “x (activity was measured to be greater than 5.0 μM)”.
For the compound `CCOC(=O)N1CCC(N2CCC3(CC2)CN(C(=O)[C@H](O)CC)c2ccc(F)cc23)CC1` [compound 730], at M1 muscarinic receptor, the maximal effect (Emax) was in the range of 25 to 100% and the “M1 Activity” value is on record as “xxx (activity was measured to be less than 2.0 μM)”. In addition, on M4 muscarinic receptor, the maximal effect (Emax) was 25 to 100% and the “M4 Activity” value is “xxx (activity was measured to be less than 2.0 μM)”.
As to `CC(=O)NC1CCC2(CCN(CCC3CCCN(C(=O)OC(C)C)C3)CC2)c2ccccc21` (stereo not drawn) [compound 731], at M1 muscarinic receptor, the Emax is < 25% and the “M1 Activity” value is “xxx (activity was measured to be less than 2.0 μM)”. For the same compound, at M4 muscarinic receptor, the Emax is < 25% and the “M4 Activity” value was “x (activity was measured to be greater than 5.0 μM)”.
For the compound `O=C1CC2(CCN([C@@H]3C[C@H]4CC[C@@H]3C4)CC2)c2ccccc21` [compound 732], on M1 muscarinic receptor, the maximum response (Emax) lay within 25 to 100% and the “M1 Activity” value is “x (activity was measured to be greater than 5.0 μM)”. In addition, at M4 muscarinic receptor, the maximal effect (Emax) is 25 to 100%; the “M4 Activity” value was “xx (activity was measured to be between 2.0 μM and 5.0 μM)”.
Turning to `CN(C)C(=O)CN1CC2(CCN(C[C@H]3C[C@H]4C=CC3C4)CC2)c2cc(F)ccc21` [compound 734], on M1 muscarinic receptor, the Emax lay within 25 to 100% and the “M1 Activity” value was “xxx (activity was measured to be less than 2.0 μM)”. At M4 muscarinic receptor, the Emax was 25 to 100% and the “M4 Activity” value was “xxx (activity was measured to be less than 2.0 μM)”.
Take `COc1cccc(N2CCC(N3CCC4(CC3)CN(C(=O)N(C)C)c3ccc(F)cc34)CC2)c1` [compound 735]: at M1 muscarinic receptor, the maximal response (Emax) is 25 to 100%; the “M1 Activity” value was “xx (activity was measured to be between 2.0 μM and 5.0 μM)”. On M4 muscarinic receptor, the maximal response (Emax) was 25 to 100% and the “M4 Activity” value was “xxx (activity was measured to be less than 2.0 μM)”.
As for `COCCN1CC2(CCN([C@@H]3C[C@H]4CCC3C4)CC2)c2cc(C)ccc21` [compound 737], at M1 muscarinic receptor, the maximal effect (Emax) was 25 to 100%; the “M1 Activity” value is “xx (activity was measured to be between 2.0 μM and 5.0 μM)”. In addition, at M4 muscarinic receptor, the Emax lay in the range of 25 to 100% and the “M4 Activity” value is given as “xxx (activity was measured to be less than 2.0 μM)”.
`CC(=O)N[C@H]1CCC2(CCN(CC3CC4C=CC3C4)CC2)c2ccccc21` (stereo partly drawn) [compound 740]: on M1 muscarinic receptor, the Emax was 25 to 100% and the “M1 Activity” value is recorded as “xxx (activity was measured to be less than 2.0 μM)”. Besides, on M4 muscarinic receptor, the Emax fell in the range of 25 to 100% and the “M4 Activity” value is “xxx (activity was measured to be less than 2.0 μM)”.
With `CC(=O)NC1CCC2(CCN(CCC3CCCN(C(=O)OCC(C)C)C3)CC2)c2ccccc21` (stereo not drawn) [compound 741], at M1 muscarinic receptor, the Emax is < 25% and the “M1 Activity” value is “x (activity was measured to be greater than 5.0 μM)”. On M4 muscarinic receptor, the maximal response (Emax) was < 25% and the “M4 Activity” value is recorded as “x (activity was measured to be greater than 5.0 μM)”.
On to `CC(=O)N1CC2(CCN(C3CC4CCC(C3)N4C(=O)OC(C)C)CC2)c2ccccc21` (stereo not drawn) [compound 742], for which, on M1 muscarinic receptor, the Emax lay within 25 to 100% and the “M1 Activity” value was “xxx (activity was measured to be less than 2.0 μM)”. At M4 muscarinic receptor, the maximum response (Emax) is 25 to 100% and the “M4 Activity” value is recorded as “xxx (activity was measured to be less than 2.0 μM)”.
